These are literature values, as cited in paper PMC5266543 (ACS infectious diseases, 2016).

The data set has as its system M. tuberculosis H37Rv. The settings on record: cited from earlier work.

On to `CC(=O)N(O)CCCP(=O)(O)O` [Compound 2, FR900098], for which the “MIC against Mtb” value is “essentially inactive”.
